Assays:
Assay type in all cases: ADME, organism-based
[1] = Cmax in BALB/c mouse brain at 2 mg/kg, iv; design: dose 2 mg/kg, route intravenous
[2] = Cmax in BALB/c mouse plasma at 2 mg/kg, iv; design: dose 2 mg/kg, route intravenous
Brain [3] = assay: AUClast in BALB/c mouse brain at 10 mg/kg, po; conditions: in vivo
Brain [4] = assay: AUClast in BALB/c mouse brain at 2 mg/kg, iv; conditions: in vivo

SMILES: CNCCN(C)c1cc(C#N)cc(CCc2cc(C)cc(N)n2)c1
- Cmax [1]: 100 ng/g
- Cmax [2]: 472 ng/mL
- AUClast (Brain [3]): 673.67 ng·h/g
- AUClast (Brain [4]): 789.07 ng·h/g

Source: ChEMBL document CHEMBL3585280, “2-Aminopyridines with a Truncated Side Chain To Improve Human Neuronal Nitric Oxide Synthase Inhibitory Potency and Selectivity” (J Med Chem, 2015)
